Measurements published in patent US20080004561A1, “Method for Treating Oncological, Virulent and Somatic Diseases, Method for Controlling Treatment Efficiency, Pharmaceutical Agents and Composition for Carrying Out Said Treatment” (priority 2005, published 2008).
Entries after “also recorded” stand apart in the source; their conditions may differ.

How the values were obtained:
blood plasma DNA = test: Blood plasma DNA concentration after end of DNase treatment course (Example 2); assay type: in vivo; details: Erlich carcinoma mice
Experimental: Fresh blood plasma (not more than 3-4 hours after isolation) with anticoagulant (sodium citrate) addition was centrifuged on Ficoll-PlaquePlus (Amersham-Pharmacia) step at 1500 g for 20 minutes at room temperature. Plasma (½ of all amount) was neatly isolated avoiding touching cells sediment on ficoll step and was centrifuged at 10 000 g for 30 minutes to eliminate cells and debris. Supernatant was taken away not touching sediment and up to 1% of sarcosile, up to 50 mM of tris HCl pH 7,6, up to 20 mM EDTA, up to 400 mM NaCl and equal volume of phenol—chloroform mixture 1:1 were added. Received emulsion was incubated at 65° C. for 2 hours than phenol-chloroform was separated by centrifuging at 5000 g during 20 minutes at room temperature. Deproteinization by phenol-chloroform method was identically repeated for three times after what water phase was processed by chloroform and after it by diethyl ether.
Organic solvents' separation was done by centrifuging at 5000 g during 15 minutes. Equal part of isopropanol was added to water phase and incubated during night at 0° C.
After sedimentation nucleic acids were separated by centrifuging at 10 000 g during 30 minutes. […]
DNA was isolated by method that is mentioned above. DNA amount was spectrophotometrically measured. […]

[1] = test system: Staphylococcus aureus VT-2003R; test: DNase use for treatment of the experimental sepsis (Example 5); assay type: in vivo; details: mice, DNase 500 mkg/kg intraperitoneally four times a day, 1-3 days after infection
Source text: White not thoroughbred mice were used for experiment. Animals' weight was 24-26 grams. Pathogenic strain of Staphylococcus aureus VT-2003R at 1×10^10 bacteria/animal dose was inoculated to retroorbital sinus of animals. DNase was intraperitoneally administered. Isotonic solution of sodium chloride or Penicillin was administrated to control groups. Each experimental group contained 10 mice. Intraperitoneal administration of compound (DNAase) four times a day at 500 mkg/kg dose continued for 1-3 days after infection. Penicillin was intramusculary administrated. Efficiency of action was estimated by number of animals that stayed alive after the death of the last one in control group. All animals have died to the third day of the experiment in control group. Six animals stayed alive to the third day of the experiment in the group that administrated DNase. Protection was […]. Received data specify an opportunity and efficiency of DNase use for infections' treatment.

[2] = test system: DNA from fresh blood serum; test: Sensitivity of circulating blood DNA to DNase action, electrophoresis (Example 9); assay type: biochemical, volunteers; details: DNA processed by DNase I for 3 hours at 37° C.
Experimental: DNA from fresh blood serum (mixture of blood received from 5 volunteers ) was isolated by standard phenol-chloroform method.
Sediment of nucleic acids was washed by 70% ethanol and dissolved in tris-EDTA buffer. Spectrophotometry with wave's length 260 nm (SF-46) was used for quantification of DNA. DNA was researched by electrophoresis in 0.8% […] gel with ethidium bromide staining. One part of received DNA was processed by DNase I for 3 hours at 37° C. After electrophoretic separation of processed and not processed DNA it was found out that: […]

[3] = test system: DNA from biofilm matrix of Escherichia coli; test: DNAase I processing of DNA from biofilm matrix, electrophoresis (Example 12); assay type: biochemical; details: DNA processed for 3 hours by DNAase I at 37° C.
Source text: (§1) Biofilms of Escherichia coli and Staphylococcus aureus were used in experiments. Biofilms were washed off by phosphate buffer from agar. Cells and matrix were separated by centrifuging. Standard phenol-chloroform method was used for DNA extraction from matrix. DNA amount was estimated by spectrophotometric analysis with wave's length 260 nm (SF-46). Received DNA was researched by electrophoresis in 0.8% […] gel with ethidium bromide staining.
(§2) One part of received DNA was processed for 3 hours by DNAase I at 37° C. After electrophoretic separation of processed and not processed DNA it was found out that: […]

[4] = test system: DNA from biofilm matrix of Staphylococcus aureus; test: as above; assay type: biochemical; details: DNA processed for 3 hours by DNAase I at 37° C.
Source text: as §1, §2

tumor cells = test: In vitro effect of DNase I on tumor cells' growth; assay type: cell-based; details: DNase I concentration up to 100 mkg/ml
[5] = test system: HPRT gene's mutations in blood T-lymphocytes; test: Frequency of HPRT gene's mutations in blood T-lymphocytes, somatic mosaicism model (Example 18); assay type: in vivo; details: patients on Neovir after tumor surgery; human recombinant DNase I 200 mkg/kg intravenously 4 times a day during three weeks
Source text: Frequency of HPRT gene's mutations in blood T-lymphocytes was studied as a model of somatic mosaicism. Human HPRT gene (chromosome Xq26) encodes enzyme that is constitutionally expressing but not essential and is involved in metabolism of purine nucleotides. Cloning was done according to Bigbee W. method (Bigbee W. Et al., Mutation Res., 1998, v. 397, pp. 119-136).

metastases development = details: systemic introduction; Sugihara S. et al. (1990, 1993); cited from earlier work

## DNase
Blood plasma DNA; DNase 0.5 mg/kg four times a day
  Blood plasma DNA concentration: 38.5 ng/mL
Blood plasma DNA; DNase 1 mg/kg twice a day
  Blood plasma DNA concentration: 55.1 ng/mL
[1]; 10 per group
  Number of animals that stayed alive to the third day: Six
[1]
  Protection: 67%
[2]
  DNA band after electrophoresis: disappeared completely
[3]
  DNA band after electrophoresis: disappeared completely
[4]
  DNA band after electrophoresis: disappeared completely
Tumor cells
  Effect on tumor cells' growth in vitro: does not cause direct cytotoxic effect; also recorded: not seen any suppressive effect
[5]
  Incidence of HPRT-deficient clones, times less than with immunostimulating therapy only: 3 times
Metastases development
  Metastases development: could slow metastases development
